Laboratory results reported in patent US20140142180A1, “METHODS OF TREATING TUMORS HAVING ELEVATED MCT1 EXPRESSION” (Whitehead Institute for Biomedical Research, priority 2012, published 2014).

Key:
[1] = tested on: BT-549 cells; assay: Cell survival assay, BT-549; type: cell-based, human
Description: (§1) Cell lines (5,000-20,000) were seeded in 96-well plates and treated with indicated amounts of 3-BrPA. After 3 days of treatment, CellTiter-Glo (Promega) and/or CyQuant (Invitrogen) were used to measure survival percentage for each concentration compared to untreated cells. FACS analysis with Annexin V and 7AAD staining was performed according to manufacturer's manual (BD Pharmingen).
(§2) 15 cell lines (BT-474, BT-549, CAK1-1, CAL-51, HCC-70, HS578T, JURKAT, MDA-MB-157, MDA-MB-231, MDA-MB-453, MDA-MB-468, PC-3, SK-BR-3, T47D, ZR-75-1) were treated with 3-BrPA (0-300 μM). After 3 days, cell viability was quantified via CellTiter-Glo assay and an IC50 from the resulting dose-response curve was interpolated using a nonlinear regression model. Transcriptome-wide normalized mRNA levels from gene expression profiling experiments performed on the Affymetrix Human Genome U133 Plus 2.0 chip were obtained from the CCLE for all 15 cell lines. The mRNA expression pattern across all 15 samples for each of the genes was then correlated with the IC50 values. Similar correlation analysis was performed using OCR/ECAR values for each cell line.

[2] = tested on: HCC-70 cells; assay: Cell survival assay, HCC-70; type: cell-based, human; settings: HCC-70, increased MCT1 level
Description: as §1, §2

[3] = tested on: BT-20 cells; assay: Cell survival assay, BT-20; type: cell-based, human
Description: as §1

[4] = tested on: MDA-MB-468 cells; assay: Cell survival assay, MDA-MB-468; type: cell-based, human
Description: as §1, §2

[5] = tested on: MT-3 cells; assay: Cell survival assay, MT-3; type: cell-based, human; settings: MT-3, increased MCT1 level
Description: as §1

[6] = tested on: SK-BR-3 cells; assay: Cell survival assay, SK-BR-3; type: cell-based, human
Description: as §1, §2

[7] = tested on: MDA-MB-231 cells; assay: Cell survival assay, MDA-MB-231; type: cell-based, human
Description: as §1, §2

[8] = tested on: MDA-MB-453 cells; assay: Cell survival assay, MDA-MB-453; type: cell-based, human; settings: MDA-MB-453, low MCT1 level
Description: as §1, §2

[9] = tested on: T47D cells; assay: Cell survival assay, T47D; type: cell-based, human; settings: low MCT1 level
Description: as §1, §2

[10] = tested on: ER negative cells; assay: 3-BrPA sensitivity of ER negative tumor cell lines; type: cell-based; settings: MCT1 expressed at high levels
[11] = tested on: parental KBM7 cells; assay: Luciferase-based ATP assay, parental KBM7 cells; type: cell-based, human; settings: 30 min treatment
Description: The bioenergetic profiles of KBM7 and MDA-MB-231 cells in response to 3-BrPA were determined using a Seahorse Bioscience XF24 Extracellular Flux Analyzer (Seahorse Bioscience). For the indicated experiments, 250,000 KBM7 or 40,000 MDA-MB-231 cells seeded in Seahorse tissue culture plates using unbuffered RPMI (10 mM Glucose). KBM7 cells were attached to the plates using CellTak (Clontech) one hour prior to the start of the experiment. For AUC (area under the curve) OCR and ECAR measurements, three consecutive readings were performed for each cell line. For experiments where 3-BrPA is used, after 3 consecutive readings, 50 μM 3-BrPA was injected through port A and ECAR and OCAR levels were measured. Lactate production was measured as described previously^50. For ATP assays, 20,000 cells were seeded and treated for 30 min with indicated amounts of 3-BrPA and ATP levels were determined using a luciferase-based assay (Promega). For metabolite measurements, 10 million wild type and MCT1 null KBM7 cells were cultured for 1 hour in presence of 50 μM 3-BrPA before metabolite extraction. Then, cells were rapidly washed three times with cold PBS, and then metabolites were extracted by addition of 80% ice-cold methanol followed after incubation on dry ice for 15 min. Endogenous metabolite profiles were obtained using LC-MS as described^51. Metabolite levels (n=3) were normalized to cell number.

[12] = tested on: AMPK and ACC phosphorylation; assay: Immunoblot of AMPK and ACC phosphorylation, wild type KBM7 cells; type: cell-based, human; settings: 50 μM 3-BrPA
[13] = molecular target: T1, MCT1 (Homo sapiens, UniProt P53985); assay: 14C-3-BrPA uptake assay, wild type KBM7 cells; type: cell-based
T1 construct: endogenous in cells; host or cells: wild type KBM7 cells (near-haploid human cell line)
T1 sequence (P53985 1-500): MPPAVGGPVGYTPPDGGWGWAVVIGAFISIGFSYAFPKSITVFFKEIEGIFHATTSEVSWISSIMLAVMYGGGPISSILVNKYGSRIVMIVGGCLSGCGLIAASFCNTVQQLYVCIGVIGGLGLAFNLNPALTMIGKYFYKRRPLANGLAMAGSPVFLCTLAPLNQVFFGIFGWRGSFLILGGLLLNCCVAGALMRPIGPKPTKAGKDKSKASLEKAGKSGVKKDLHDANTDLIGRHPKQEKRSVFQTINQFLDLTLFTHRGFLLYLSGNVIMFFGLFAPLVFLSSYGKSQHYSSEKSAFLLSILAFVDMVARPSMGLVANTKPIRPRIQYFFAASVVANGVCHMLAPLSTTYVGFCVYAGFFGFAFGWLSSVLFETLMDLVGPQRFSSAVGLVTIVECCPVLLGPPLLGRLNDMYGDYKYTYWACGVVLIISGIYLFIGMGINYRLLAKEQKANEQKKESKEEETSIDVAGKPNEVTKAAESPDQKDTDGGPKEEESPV
T1 sequence (P35613 140-385 partner limits assumed): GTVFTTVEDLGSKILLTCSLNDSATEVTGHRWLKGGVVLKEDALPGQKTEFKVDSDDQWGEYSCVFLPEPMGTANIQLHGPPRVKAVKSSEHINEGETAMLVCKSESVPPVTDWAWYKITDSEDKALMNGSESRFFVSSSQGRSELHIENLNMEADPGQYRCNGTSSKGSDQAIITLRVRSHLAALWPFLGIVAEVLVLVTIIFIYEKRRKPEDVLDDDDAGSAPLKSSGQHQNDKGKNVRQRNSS
Description: (§3) Wild type KBM7 or MCT1-null cells were seeded in HBSS and exposed for up to 20 minutes to 100 μM ^14C-labeled 3-BrPA (6.8 mCi/mmole) (Moravek) with or without competitor molecules like 3-BrPA, Pyruvate, L-Lactate and D-Lactate. Cells were washed with cold HBSS, lysed in a NaOH buffer, and uptake measured using a liquid scintillation counter.

[14] = tested on: MCT1-null cells; assay: 14C-3-BrPA uptake assay, MCT1-null KBM7 cells; type: cell-based, human; settings: MCT1-null compared to parental KBM7 cells
Description: as §3

O=C(O)C(=O)CBr [3-BrPA, 3-bromopyruvic acid]
sensitivity to 3-BrPA ([1]; BT-549, increased MCT1 level): sensitive | sensitivity to 3-BrPA with suppression of GAPDH expression by RNAi ([1]; BT-549 expressing shRNA targeted to GAPDH vs GFP control): markedly increased the sensitivity | sensitivity to 3-BrPA with partial suppression of MCT1 by RNAi ([1]; BT-549 expressing shRNAs targeting MCT1): sufficient to confer resistance | sensitivity to 3-BrPA [2]: sensitive | sensitivity to 3-BrPA ([3]; BT-20, increased MCT1 level): sensitive | sensitivity to 3-BrPA with partial suppression of MCT1 by RNAi ([3]; BT-20 expressing shRNAs targeting MCT1): sufficient to confer resistance | sensitivity to 3-BrPA ([4]; MDA-MB-468, increased MCT1 level): sensitive | sensitivity to 3-BrPA with suppression of GAPDH expression by RNAi ([4]; MDA-MB-468 expressing shRNA targeted to GAPDH vs GFP control): markedly increased the sensitivity | sensitivity to 3-BrPA [5]: sensitive | sensitivity to 3-BrPA ([6]; SK-BR-3, low MCT1 level): resistant | sensitivity to 3-BrPA with stable expression of MCT1 ([6]; SK-BR-3 stably expressing MCT1 cDNA): sufficient to sensitize | sensitivity to 3-BrPA ([7]; MDA-MB-231, low MCT1 level): resistant | sensitivity to 3-BrPA with stable expression of MCT1 ([7]; MDA-MB-231 stably expressing MCT1 cDNA): sufficient to sensitize | sensitivity to 3-BrPA [8]: resistant | sensitivity to 3-BrPA [9]: resistant | sensitivity to 3-BrPA [10]: highly sensitive | total ATP levels [11]: substantial decrease | AMPK and ACC phosphorylation, markers of energy stress [12]: robustly increasing | 3-BrPA uptake on reduction in extracellular pH ([13]; wild type KBM7, radiolabeled 3-BrPA, 20 minutes): enhanced | competition with the uptake of radiolabeled 3-BrPA ([13]; wild type KBM7 in HBSS, up to 20 minutes, unlabeled competitor): effectively competed | uptake of 14C-labeled 3-BrPA [14]: did not take up
